From ChEMBL document CHEMBL1201862, “PubChem BioAssay data set” (2004)
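Assay format: 96-well plates, 48-hour exposure. Abbreviation: GI50, concentration required for 50% inhibition of growth.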 Calls of active or inactive are those of the source. Rule as the data show it: active = GI50 up to about 1.1 µM and inactive = higher.

Key:
Assay in all cases: NCI tumour cell line growth inhibition, 48 h
A498 = test system: A498
OVCAR-8 = test system: OVCAR-8
A549 = test system: A549
SF-539 = test system: SF-539
IGROV-1 = test system: IGROV-1
SN12C = test system: SN12C
OVCAR-4 = test system: OVCAR-4
HT-29 = test system: HT-29
MDA-MB-231 = test system: MDA-MB-231
RXF 393 = test system: RXF 393
SK-MEL-2 = test system: SK-MEL-2
SF-295 = test system: SF-295
HOP-92 = test system: HOP-92
TK-10 = test system: TK-10
U-251 = test system: U-251
SK-MEL-5 = test system: SK-MEL-5
NCI-H226 = test system: NCI-H226
NCI-H23 = test system: NCI-H23
HCT-15 = test system: HCT-15
EKVX = test system: EKVX
Hs-578T = test system: Hs-578T
UACC-257 = test system: UACC-257
MOLT-4 = test system: MOLT-4
SNB-75 = test system: SNB-75
SNB-19 = test system: SNB-19
T47D = test system: T47D
RPMI-8226 = test system: RPMI-8226
HCC 2998 = test system: HCC 2998
NCI-H460 = test system: NCI-H460
MCF7 = test system: MCF7
HCT-116 = test system: HCT-116
COLO 205 = test system: COLO 205
DU-145 = test system: DU-145
K562 = test system: K562
SW-620 = test system: SW-620
M14 = test system: M14
OVCAR-3 = test system: OVCAR-3
NCI/ADR-RES = test system: NCI/ADR-RES
UO-31 = test system: UO-31
SF-268 = test system: SF-268
786-0 = test system: 786-0
HOP-62 = test system: HOP-62
HL-60 = test system: HL-60
MDA-MB-435 = test system: MDA-MB-435
SK-OV-3 = test system: SK-OV-3
UACC-62 = test system: UACC-62
KM12 = test system: KM12
BT-549 = test system: BT-549
OVCAR-5 = test system: OVCAR-5
ACHN = test system: ACHN
SK-MEL-28 = test system: SK-MEL-28
NCI-H522 = test system: NCI-H522
CAKI-1 = test system: CAKI-1
Malme-3M = test system: Malme-3M
LOX IMVI = test system: LOX IMVI
SR = test system: SR
CCRF-CEM = test system: CCRF-CEM
PC-3 = test system: PC-3

## COc1cc(C2SCC(=O)N2NC(=O)c2ccc(NC(C)=O)cc2)cc(OC)c1OC (stereo not drawn)
A498
  GI50: > 100 µM (inactive)
OVCAR-8
  GI50: > 100 µM (inactive)
A549
  GI50: > 100 µM (inactive)
SF-539
  GI50: > 100 µM (inactive)
IGROV-1
  GI50: > 100 µM (inactive)
SN12C
  GI50: > 100 µM (inactive)
OVCAR-4
  GI50: > 100 µM (inactive)
HT-29
  GI50: > 100 µM (inactive)
MDA-MB-231
  GI50: > 100 µM (inactive)
RXF 393
  GI50: > 100 µM (inactive)
SK-MEL-2
  GI50: > 100 µM (inactive)
SF-295
  GI50: > 100 µM (inactive)
HOP-92
  GI50: > 100 µM (inactive)
TK-10
  GI50: > 100 µM (inactive)
U-251
  GI50: > 100 µM (inactive)
SK-MEL-5
  GI50: > 100 µM (inactive)
NCI-H226
  GI50: > 100 µM (inactive)
NCI-H23
  GI50: > 100 µM (inactive)
HCT-15
  GI50: > 100 µM
EKVX
  GI50: > 100 µM (inactive)
Hs-578T
  GI50: > 100 µM (inactive)
UACC-257
  GI50: > 100 µM (inactive)
MOLT-4
  GI50: > 100 µM (inactive)
SNB-75
  GI50: > 100 µM (inactive)
SNB-19
  GI50: > 100 µM (inactive)
T47D
  GI50: > 100 µM (inactive)
RPMI-8226
  GI50: > 100 µM (inactive)
HCC 2998
  GI50: > 100 µM (inactive)
NCI-H460
  GI50: > 100 µM (inactive)
MCF7
  GI50: > 100 µM (inactive)
HCT-116
  GI50: > 100 µM (inactive)
COLO 205
  GI50: > 100 µM (inactive)
DU-145
  GI50: > 100 µM (inactive)
K562
  GI50: 35.8 µM (inactive)
SW-620
  GI50: > 100 µM (inactive)
M14
  GI50: > 100 µM (inactive)
OVCAR-3
  GI50: > 100 µM (inactive)
NCI/ADR-RES
  GI50: > 100 µM (inactive)
UO-31
  GI50: > 100 µM (inactive)
SF-268
  GI50: > 100 µM (inactive)
786-0
  GI50: > 100 µM (inactive)
HOP-62
  GI50: > 100 µM (inactive)
HL-60
  GI50: > 100 µM (inactive)
MDA-MB-435
  GI50: > 100 µM (inactive)
SK-OV-3
  GI50: > 100 µM (inactive)
UACC-62
  GI50: > 100 µM (inactive)
KM12
  GI50: > 100 µM (inactive)
BT-549
  GI50: > 100 µM (inactive)
OVCAR-5
  GI50: > 100 µM (inactive)
ACHN
  GI50: > 100 µM (inactive)
SK-MEL-28
  GI50: > 100 µM (inactive)

## CCOC(=O)C1=C(C)NC(=O)NC1c1coc2cc(C)cc(C)c2c1=O (stereo not drawn)
A498
  GI50: > 100 µM (inactive)
OVCAR-8
  GI50: 64.1 µM (inactive)
A549
  GI50: 46.9 µM (inactive)
SF-539
  GI50: 75.9 µM (inactive)
NCI-H522
  GI50: 1.68 µM (inactive)
IGROV-1
  GI50: > 60.1 µM (inactive)
SN12C
  GI50: 58.2 µM (inactive)
OVCAR-4
  GI50: 55.3 µM (inactive)
HT-29
  GI50: 32.1 µM (inactive)
MDA-MB-231
  GI50: > 61.5 µM (inactive)
RXF 393
  GI50: 25.4 µM (inactive)
SK-MEL-2
  GI50: > 43.8 µM (inactive)
SF-295
  GI50: 47.6 µM (inactive)
HOP-92
  GI50: > 74.3 µM (inactive)
TK-10
  GI50: 38.9 µM (inactive)
U-251
  GI50: 32.1 µM (inactive)
SK-MEL-5
  GI50: > 51.2 µM (inactive)
NCI-H226
  GI50: > 100 µM (inactive)
NCI-H23
  GI50: > 86.7 µM (inactive)
HCT-15
  GI50: 25 µM
EKVX
  GI50: 31.6 µM (inactive)
Hs-578T
  GI50: 56.2 µM (inactive)
CAKI-1
  GI50: > 100 µM (inactive)
UACC-257
  GI50: 40.2 µM (inactive)
MOLT-4
  GI50: 27.5 µM (inactive)
SNB-75
  GI50: 3.27 µM (inactive)
Malme-3M
  GI50: 13 µM (inactive)
SNB-19
  GI50: 90.2 µM (inactive)
T47D
  GI50: > 69.5 µM (inactive)
LOX IMVI
  GI50: 69.2 µM (inactive)
RPMI-8226
  GI50: 41.7 µM (inactive)
NCI-H460
  GI50: 25.9 µM (inactive)
SR
  GI50: 10.2 µM (inactive)
MCF7
  GI50: 36.2 µM (inactive)
HCT-116
  GI50: 36.9 µM (inactive)
COLO 205
  GI50: 54.6 µM (inactive)
DU-145
  GI50: > 100 µM (inactive)
K562
  GI50: 30.7 µM (inactive)
SW-620
  GI50: 32.1 µM (inactive)
M14
  GI50: 34.7 µM (inactive)
OVCAR-3
  GI50: 24.5 µM (inactive)
NCI/ADR-RES
  GI50: 27.5 µM (inactive)
UO-31
  GI50: 44 µM (inactive)
SF-268
  GI50: 57.5 µM (inactive)
786-0
  GI50: 67.9 µM (inactive)
HOP-62
  GI50: 36.8 µM (inactive)
HL-60
  GI50: > 54.5 µM (inactive)
MDA-MB-435
  GI50: 4.5 µM (inactive)
SK-OV-3
  GI50: > 66.5 µM (inactive)
UACC-62
  GI50: 61.5 µM (inactive)
KM12
  GI50: 30 µM (inactive)
BT-549
  GI50: 99.3 µM (inactive)
OVCAR-5
  GI50: 49 µM (inactive)
ACHN
  GI50: > 81.3 µM (inactive)
CCRF-CEM
  GI50: 37.7 µM (inactive)
PC-3
  GI50: 48.3 µM (inactive)
SK-MEL-28
  GI50: > 100 µM (inactive)
